Laboratory results: patent publication US11021468B2, “TGF-ß inhibitors” (Rigel Pharmaceuticals, Inc., priority 2015, dated 2021)

How the values were obtained:
GDF8 = experiment: AlphaScreen SureFire SMAD3 (p-Ser423/425) assay, GDF8-stimulated (GDF pSMAD (MPC11)); type: cell-based; details: p-SMAD-3 (Ser423/425)
From the text: (§1) Example 2: AlphaScreen® SureFire® SMAD3 (p-Ser423/425) Assay
(§2) The p-SMAD-3 (Ser423/425) SureFire® assay has been designed to measure the phosphorylation of endogenous cellular p-SMAD-3 (Ser423/425) in cell lysates and is a system for the screening of both modulators of receptor activation (e.g. agonists and antagonists) as well as agents acting intracellularly, such as small molecule inhibitors of upstream events. The assay will measure p-SMAD-3 (Ser423/425) activation by either cloned or endogenous receptors, and can be applied to primary cells.
(§3) P-SMAD-3 (Ser423/425) SureFire® Assay Protocols
(§4) 96-well Assay Protocol for 293FT and RMS13 adherent cells can be carried out manually or in high throughput with liquid handling robots.
(§5) The cells (80 μL of cells for 96 well plates) were plated in collagen coated tissue culture plates in RPMI or FreeStyle medium (Invitrogen) and incubated overnight. For manual analysis, 6 plates for GDF8, 6 plates for TGFβ, and optionally 6 plates for Alk5ca(ALK5 constitutively active) were used.
(§6) The compound dilution plates were prepared as follows: 12 μL of DMSO was transferred into first column of 96-well plate, and 16 μL of DMSO was transferred into columns 2-12 of the 96-well plate. 12 μL of compound solution was transferred into first column of the DMSO-containing 96-well plate. Three-fold dilution was performed up to column 10 of the DMSO-containing 96-well plate.
(§7) The plate containing cells were treated with compounds for about 10 minutes, and then ligand was added. GDF8 or TGFb was added to plates to stimulate. 293FL cells were stimulated for 90 minutes at 37° C.; and RMS13 cells were stimulated for 60 minutes at 37° C. The medium was then removed from the cells, and 1× Lysis Buffer (about 25 μL) was added and the plate was gently agitated on plate shaker for 5-10 minutes.
(§8) The lysate (5 μL) was then placed into 384-well shallow plates avoiding the generation of bubbles. To this, the Reaction Buffer+Activation Buffer+AlphaScreen® Acceptor beads mixture (5 μL) was added. The plate was sealed with adhesive cover and shielded from light (e.g., with metal foil), and agitated gently on plate shaker for 2 hours at room temperature.
(§9) Dilution buffer+AlphaScreen® Donor beads (2 μL) was then added, and the plate was intubated on the plate shaker for an additional 1½ hours. After completion, the plate was read on Synergy-4 or Enspire plate reader, using AlphaScreen® pSMAD3® settings.
(§10) Representative results for inhibition of GDF8 (data=GDF pSMAD (MPC11) (μM)) and TGF-β (data=TGF-β pSMAD (MPC-11) (μM)) signaling are shown in Table 1: […]

TGF-β = experiment: AlphaScreen SureFire SMAD3 (p-Ser423/425) assay, TGF-β-stimulated (TGF-β pSMAD (MPC-11)); type: cell-based; details: p-SMAD-3 (Ser423/425)
From the text: as §1, §2, §3, §4, §5, §6, §7, §8, §9, §10

[1] = Mus musculus, MPC-11, inhibition of GDF8 signaling
[2] = Mus musculus, MPC-11, inhibition of TGF-β signaling

SMILES | IC50 (GDF8; [1]) | IC50 (TGF-β; [2]) | IC50 (GDF8; inhibition of GDF8 signaling) | IC50 (TGF-β; inhibition of TGF-β signaling)
Cc1cnc(-c2cccc(F)c2)nc1Nc1cc2cn[nH]c2cc1F [Compound 57, 6-Fluoro-N-(2-(3-fluorophenyl)-5-methylpyrimidin-4-yl)-1H-indazol-5-amine] | 852 nM | 1820 nM | – | –
Cc1cccc(-c2nc(Nc3ccc4[nH]ncc4c3)c3cc[nH]c3n2)c1 [Compound 9, N-(1H-Indazol-5-yl)-2-(3-methylphenyl)-7H-pyrrolo[2,3-d]pyrimidin-4-amine] | 336 nM | 1460 nM | – | –
Cc1cnc(-c2ccc(F)c(F)c2)nc1Nc1cnc2[nH]ncc2c1 [Compound 15, N-(2-(3,4-Difluorophenyl)-5-methylpyrimidin-4-yl)-1H-pyrazolo[3,4-b]pyridin-5-amine] | 685 nM | 876 nM | – | –
COc1cc2[nH]ncc2cc1Nc1nc(-c2ccc(F)c(F)c2)ncc1C [Compound 63, N-(2-(3,4-Difluorophenyl)-5-methylpyrimidin-4-yl)-6-methoxy-1H-indazol-5-amine] | 312 nM | 395 nM | – | –
Fc1cccc(-c2ncc(F)c(Nc3ccc4[nH]ncc4c3)n2)c1 [Compound 36, N-(5-Fluoro-2-(3-fluorophenyl)pyrimidin-4-yl)-1H-indazol-5-amine] | 555 nM | 3060 nM | – | –
Fc1ccc(-c2nc(Nc3ccc4[nH]ncc4c3)c3[nH]ccc3n2)cc1 [Compound 10, 2-(4-Fluorophenyl)-N-(1H-indazol-5-yl)-5H-pyrrolo[3,2-d]pyrimidin-4-amine] | 644 nM | 5130 nM | – | –
Fc1ccc(-c2nccc(Nc3ccc4[nH]ncc4c3)n2)cc1F [Compound 22, N-(2-(3,4-Difluorophenyl)pyrimidin-4-yl)-1H-indazol-5-amine] | – | – | 32.1 nM | 112 nM
Cc1ccc(C)c(-c2ncc(C)c(Nc3cc4cn[nH]c4cc3F)n2)c1 [Compound 59, 6-Fluoro-N-(2-(2,5-dimethylphenyl)-5-methylpyrimidin-4-yl)-1H-indazol-5-amine] | 332 nM | 558 nM | – | –
FC(F)(F)c1cccc(-c2nccc(Nc3ccc4[nH]ncc4c3)n2)c1 [Compound 45, N-(2-(3-Trifluoromethylphenyl)pyrimidin-4-yl)-1H-indazol-5-amine] | 652 nM | 4370 nM | – | –
Fc1ccccc1-c1ncc(F)c(Nc2ccc3[nH]ncc3c2)n1 [Compound 24, N-(5-Fluoro-2-(2-fluorophenyl)pyrimidin-4-yl)-1H-indazol-5-amine] | 846 nM | 3990 nM | – | –
COc1cccc(-c2nccc(Nc3ccc4[nH]ncc4c3)n2)c1 [Compound 19, N-(2-(3-Methoxyphenyl)pyrimidin-4-yl)-1H-indazol-5-amine] | 766 nM | 4050 nM | – | –
Fc1ccc(-c2nccc(Nc3ccc4[nH]ncc4c3)n2)cc1F [Compound 25, N-(2-(3,4-Difluorophenyl)pyrimidin-4-yl)-1H-indazol-5-amine] | – | – | 91.1 nM | 326 nM
c1ccc(-c2nccc(Nc3ccc4[nH]ncc4c3)n2)cc1 [Compound 20, N-(2-Phenylpyrimidin-4-yl)-1H-indazol-5-amine] | 358 nM | 1740 nM | – | –
Cc1cc(-c2ncc(C)c(Nc3cc4cn[nH]c4cc3C)n2)ccc1F [Compound 56, N-(2-(4-Fluoro-3-methylphenyl)-5-methylpyrimidin-4-yl)-6-methyl-1H-indazol-5-amine] | – | – | 184 nM | 281 nM

The next lines start with the values.

IC50 (GDF8; [1]) | IC50 (TGF-β; [2]) | IC50 (GDF8; inhibition of GDF8 signaling) | IC50 (TGF-β; inhibition of TGF-β signaling) | SMILES
116 nM | 553 nM | – | – | Cc1cccc(-c2nccc(Nc3ccc4[nH]ncc4c3)n2)c1 [Compound 32, N-(2-(3-Methylphenyl)pyrimidin-4-yl)-1H-indazol-5-amine]
204 nM | 436 nM | – | – | Cc1ccccc1-c1ncc(C)c(Nc2ccc3[nH]ncc3c2)n1 [Compound 39, N-(2-(2-Methylphenyl)-5-methylpyrimidin-4-yl)-1H-indazol-5-amine]
257 nM | 1320 nM | – | – | Fc1cc2[nH]ncc2cc1Nc1ccnc(-c2ccccc2F)n1 [Compound 23, 6-Fluoro-N-(2-(2-fluorophenyl)pyrimidin-4-yl)-1H-indazol-5-amine]
21.5 nM | 85.3 nM | – | – | N#Cc1cccc(-c2nccc(Nc3ccc4[nH]ncc4c3)n2)c1 [Compound 29, N-(2-(3-Cyanophenyl)pyrimidin-4-yl)-1H-indazol-5-amine]
264 nM | 1680 nM | – | – | Fc1ccc(-c2nc(Nc3ccc4[nH]ncc4c3)c3cc[nH]c3n2)cc1F [Compound 6, 2-(3,4-Difluorophenyl)-N-(1H-indazol-5-yl)-7H-pyrrolo[2,3-d]pyrimidin-4-amine]
126 nM | 1000 nM | – | – | Cc1ccc(F)cc1-c1nccc(Nc2ccc3[nH]ncc3c2)n1 [Compound 26, N-(2-(5-fluoro-2-methylphenyl)pyrimidin-4-yl)-1H-indazol-5-amine]
105 nM | 168 nM | – | – | Cc1ccc(C)c(-c2ncc(C)c(Nc3ccc4[nH]ncc4c3)n2)c1 [Compound 41, N-(2-(2,5-Dimethylphenyl)-5-methylpyrimidin-4-yl)-1H-indazol-5-amine]
47.2 nM | 560 nM | – | – | Cc1ccc(C)c(-c2nccc(Nc3ccc4c(cnn4C(=O)CN(C)C)c3)n2)c1 [Compound 1, 2-(Dimethylamino)-1-(5-((2-(2,5-dimethylphenyl)pyrimidin-4-yl)amino)-1H-indazol-1-yl)ethan-1-one]
201 nM | 1230 nM | – | – | Cc1ccccc1-c1nccc(Nc2ccc3[nH]ncc3c2)n1 [Compound 21, N-(2-(2-Methylphenyl)pyrimidin-4-yl)-1H-indazol-5-amine]
25.1 nM | 203 nM | – | – | Fc1ccc(-c2nccc(Nc3ccc4[nH]ncc4c3)n2)cc1 [Compound 33, N-(2-(4-Fluorophenyl)pyrimidin-4-yl)-1H-indazol-5-amine]
289 nM | 410 nM | – | – | Cc1cccc(-c2ncc(C)c(Nc3cnc4[nH]ncc4c3)n2)c1 [Compound 16, N-(2-(3-Methylphenyl)-5-methylpyrimidin-4-yl)-1H-pyrazolo[3,4-b]pyridin-5-amine]
7.6 nM | 53.3 nM | – | – | Cc1cc(F)ccc1-c1nccc(Nc2ccc3[nH]ncc3c2)n1 [Compound 42, N-(2-(4-Fluoro-2-methylphenyl)pyrimidin-4-yl)-1H-indazol-5-amine]
171 nM | 840 nM | – | – | Fc1ccc(-c2nccc(Nc3cnc4[nH]ncc4c3)n2)cc1 [Compound 4, N-(2-(4-Fluorophenyl)pyrimidin-4-yl)-1H-pyrazolo[3,4-b]pyridin-5-amine]
258 nM | 2000 nM | – | – | Fc1ccc(-c2ncc(F)c(Nc3ccc4[nH]ncc4c3)n2)cc1F [Compound 35, N-(2-(3,4-Difluorophenyl)-5-fluoropyrimidin-4-yl)-1H-indazol-5-amine]
287 nM | 2200 nM | – | – | Fc1cc(F)cc(-c2nccc(Nc3ccc4[nH]ncc4c3)n2)c1 [Compound 27, N-(2-(3,5-Difluorophenyl)pyrimidin-4-yl)-1H-indazol-5-amine]
260 nM | 629 nM | – | – | Cc1ccc(C)c(-c2ncc(C)c(Nc3cc4cn[nH]c4cc3C)n2)c1 [Compound 55, N-(2-(2,5-Dimethylphenyl)-5-methylpyrimidin-4-yl)-6-methyl-1H-indazol-5-amine]
306 nM | 732 nM | – | – | Cc1cnc(-c2ccc(F)cc2)nc1Nc1cnc2[nH]ncc2c1 [Compound 14, N-(2-(4-Fluorophenyl)-5-methylpyrimidin-4-yl)-1H-pyrazolo[3,4-b]pyridin-5-amine]
